Data as given in patent publication US9845292B2 (Max-Planck-Gesellschaft zur Förderung der Wissenschaften …, priority 2013, dated 2017).
pKi: −log10 of the molar value. Where two headings read alike, the source gives them in different places.

Legend:
FKBP52 = target: T1, FKBP52 (Homo sapiens, UniProt Q02790); assay: Fluorescence polarization binding assay, FK1-domain of FKBP52WT with tracer F2 (selectivity FKBP51 vs. FKBP52); conditions: selectivity factor over FKBP52
T1 construct: Purified FK1-domains of FKBP51WT (4.5 nM) with F4 (3 nM), FKBP52WT (400 nM) with F2 (20 nM); implied by Ni-NTA purification) (N); made in house; host or cells: E. coli BL21(DE3)pLysS
T1 sequence (Q02790 50-138 limits assumed): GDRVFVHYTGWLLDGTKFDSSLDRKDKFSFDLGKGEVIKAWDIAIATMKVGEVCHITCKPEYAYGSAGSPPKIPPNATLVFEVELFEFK
Description: (§1) The target protein was also diluted in this assay buffer at double the highest concentration required for the final sample. This protein stock was used for a 1:1 serial dilution.
(§2) The inventive compound was dissolved in DMSO to reach a 100-times concentrated stock solution. This was used for a 1:1 serial dilution in DMSO.
(§3) For FKBP12, −51, and −52 the binding assays were performed in duplicates in the plate format.
(§4) The competition curves were analyzed by using SigmaPlot9. Data were fitted to a four parameter logistic curve to deduce the IC50 values. […] A=(Amax−Amin)/[L]t×(([L]t×((2×((Klig+Kcomp+[L]t+[I]t−[R]t)^2−3×(Kcomp×([L]t−[R]t)+Klig×([I]t−[R]t)+Klig×Kcomp))^0.5×COS(ARCCOS((−2×(Klig+Kcomp+[L]t+[I]t−[R]t)^3+9×(Klig+Kcomp+[L]t+[I]t−[R]t)×(Kcomp×([L]t−[R]t)+Klig×([I]t−[R]t)+Klig×Kcomp)−27×(−1×Klig×Kcomp×[R]t))/(2×((((Klig+Kcomp+[L]t+[I]t−[R]t)^2−3×(Kcomp×([L]t−[R]t)+Klig×([I]t−[R]t)+Klig×Kcomp))^3)^0.5)))/3))−(Klig+Kcomp+[L]t+[I]t−[R]t)))/((3×Klig)+((2×((Klig+Kcomp+[L]t+[I]t−[R]t)^2−3×(Kcomp×([L]t−[R]t)+Klig×([I]t−[R]t)+Klig×Kcomp))^0.5×COS(ARCCOS((−2×(Klig+Kcomp+[L]t+[I]t−[R]t)^3+9×(Klig+Kcomp+[L]t+[I]t−[R]t)×(Kcomp×([L]t−[R]t)+Klig×([I]t−[R]t)+Klig×Kcomp)−27×(−1×Klig×Kcomp×[R]t))/(2×((((Klig+Kcomp+[L]t+[I]t−[R]t)^2−3×(Kcomp×([L]t−[R]t)+Klig×([I]t−[R]t)+Klig×Kcomp))^3)^0.5)))/3))−(Klig+Kcomp+[L]t+[I]t−[R]t))))+Amin
(§5) In this equation Klig and Kcomp stand for the Kd values of the used tracer or competing inhibitor, [I]t is referring to the total concentration of the titrated inhibitor.
The Selectivity of the Compounds was Classified by Ki(FKBP51)/Ki(FKBP52)
(§6) Inhibition constants were measured in a fluorescence polarization binding assay by titrating the compounds.

FKBP51 = target: T2, FKBP51 (Homo sapiens, UniProt Q13451); assay: Fluorescence polarization binding assay, FK1-domain of FKBP51WT with tracer F4; design: Purified FK1-domains of FKBP51WT (4.5 nM) with F4 (3 nM), FKBP52WT (400 nM) with F2 (20 nM); made in house; host or cells: E. coli BL21(DE3)pLysS; conditions: read-out: Affinity(Ki) for FKBP51
T2 sequence (Q13451 42-130 limits assumed): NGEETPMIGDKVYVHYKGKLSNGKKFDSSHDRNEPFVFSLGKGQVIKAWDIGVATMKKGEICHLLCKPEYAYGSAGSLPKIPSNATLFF
Description: as §1, §2, §3, §4, §5, §6

[1] = FKBP52WT (400 nM) with F2 (20 nM), A series
[2] = FK1-domain of FKBP51WT (4.5 nM) with F4 (3 nM), A series

Structure (SMILES)	Ki(FKBP51)/Ki(FKBP52) (FKBP52; compounds B01-C25)	pKi (FKBP51; compounds B01-C25)	Ki(FKBP51)/Ki(FKBP52) (FKBP52; [1])	pKi (FKBP51; [2])
COc1cc([C@@H](C(=O)N2CCCC[C@H]2C(=O)OC2C=CCCC2)C2CCCCC2)cc(OC)c1OC (mixture of isomers) [Compound C15, (2S)-cyclohex-2-en-1-yl-1-((S)-2-cyclohexyl-2-(3,4,5-trimethoxyphenyl)acetyl) piperidine-2-carboxylate]	++ (>50 ++)	5.00 to 6.00	–	–
CCC(C)OC(=O)C1CCCCN1C(=O)[C@H](c1cc(OC)c(OC)c(OC)c1)C1CCCCC1 (stereo in doubt) [Compound C08, (S)-(R)-sec-butyl-1-((S)-2-cyclohexyl-2-(3,4,5-trimethoxyphenyl)acetyl) piperidine-2-carboxylate]	++ (>50 ++)	5.00 to 6.00	–	–
C=CC[C@H](C(=O)N1CCCC1C(=O)OC(CCc1ccc(OC)c(OC)c1)c1cccc(OCCN2CCOCC2)c1)c1cc(OC)c(OC)c(OC)c1 (stereo in doubt) [Reference A33, (S)-(R)-3-(3,4-Dimethoxyphenyl)-1-(3-(2-morpholinoethoxy)phenyl)propyl-1-((S)-2-(3,4,5-trimethoxyphenyl)pent-4-enoyl)pyrrolidine-2-carboxylate]	–	–	not selective (<5 not selective)	–
C=CC[C@H](C(=O)N1CCCC[C@H]1C(=O)OC(CCCc1cccnc1)CCCc1cccnc1)c1cc(OC)c(OC)c(OC)c1 [Compound A04, (S)-1,7-di(pyridin-3-yl)heptan-4-yl 1-((S)-2-(3,4,5-trimethoxyphenyl)pent-4-enoyl)piperidine-2-carboxylate]	–	–	+ (>5 +)	4.30 to 5.00
C=CC[C@H](C(=O)N1CC=CC[C@H]1C(=O)O[C@H](CCc1ccc(OC)c(OC)c1)c1cccc(OCCN2CCOCC2)c1)c1cc(OC)c(OC)c(OC)c1 [Compound A06]	–	–	+ (>5 +)	4.30 to 5.00
COc1ccc(CC[C@@H](OC(=O)[C@@H]2CCCCN2C(=O)[C@@H](Cc2ccccc2)c2cc(OC)c(OC)c(OC)c2)c2cccc(OCC(=O)O)c2)cc1OC [Compound A10, 2-(3-((R)-3-(3,4-dimethoxyphenyl)-1-(((S)-1-((S)-3-phenyl-2-(3,4,5-trimethoxyphenyl)propanoyl)piperidine-2-carbonyl)oxy)propyl)phenoxy)acetic acid]	–	–	+ (>5 +)	4.30 to 5.00
COc1ccc(CCC(OC(=O)[C@@H]2CCCCN2C(=O)[C@H](NC(=O)c2ccccc2)C2CCCCC2)c2cccc(OCC(=O)O)c2)cc1OC (stereo partly drawn) [Compound A23, 2-(3-(1-(((2S)-1-(2-benzamido-2-cyclohexylacetyl)piperidine-2-carbonyl)oxy)-3-(3,4-dimethoxyphenyl)propyl)phenoxy)acetic acid]	–	–	+ (>5 +)	4.30 to 5.00
C=CC[C@H](C(=O)N1CCSC[C@H]1C(=O)O[C@H](CCc1ccc(OC)c(OC)c1)c1cccc(OCCN2CCOCC2)c1)c1cc(OC)c(OC)c(OC)c1 [Reference A34, (R)-(R)-3-(3,4-Dimethoxyphenyl)-1-(3-(2-morpholinoethoxy)phenyl)propyl-4-((S)-2-(3,4,5-trimethoxyphenyl)pent-4-enoyl)thiomorpholine-3-carboxylate]	–	–	not selective (<5 not selective)	–

Results, then the compound that gave them:

Ki(FKBP51)/Ki(FKBP52) (FKBP52; compounds B01-C25)	pKi (FKBP51; compounds B01-C25)	Ki(FKBP51)/Ki(FKBP52) (FKBP52; [1])	pKi (FKBP51; [2])	Structure (SMILES)
–	–	+++ (>500 +++)	> 7.00	COc1ccc(CCC(OC(=O)C2CCCCN2C(=O)[C@H](c2cc(OC)c(OC)c(OC)c2)[C@@H]2C=CCCC2)c2cccc(OCCN3CCOCC3)c2)cc1OC (stereo in doubt) [Compound A12, (S)-(R)-3-(3,4-Dimethoxyphenyl)-1-(3-(2-morpholinoethoxy)phenyl)propyl-1-((S)-2-((S)-cyclohex-2-en-1-yl)-2-(3,4,5-trimethoxyphenyl)acetyl)piperidine-2-carboxylate]
–	–	++ (>50 ++)	6.00 to 7.00	COc1ccc(OCCOC(=O)[C@@H]2CCCCN2C(=O)[C@H](c2cc(OC)c(OC)c(OC)c2)C2C=CCCC2)cc1OC (stereo in doubt) [Compound A14, (S)-2-(3,4-Dimethoxyphenoxy)ethyl-1-((S)-2-((R)-cyclohex-2-en-1-yl)-2-(3,4,5-trimethoxyphenyl)acetyl)piperidine-2-carboxylate]
–	–	+++ (>500 +++)	> 7.00	COc1ccc(CCC(OC(=O)C2CCCN2C(=O)[C@H](c2cc(OC)c(OC)c(OC)c2)C2C=CCCC2)c2cccc(OCCN3CCOCC3)c2)cc1OC (stereo in doubt) [Compound A15, (S)-(R)-3-(3,4-dimethoxyphenyl)-1-(3-(2-morpholinoethoxy)phenyl)propyl-1-((S)-2-((R)-cyclohex-2-en-1-yl)-2-(3,4,5-trimethoxyphenyl)acetyl)pyrrolidine-2-carboxylate]
–	–	+ (>5 +)	5.00 to 6.00	C=CC[C@H](C(=O)N1CCCC[C@H]1C(=O)N[C@H](CCc1ccc(OC)c(OC)c1)c1cccc(OCCN2CCOCC2)c1)c1cc(OC)c(OC)c(OC)c1 [Compound A05, (S)-N-((R)-3-(3,4-dimethoxyphenyl)-1-(3-(2-morpholinoethoxy)phenyl)propyl)-1-((S)-2-(3,4,5-trimethoxyphenyl)pent-4-enoyl)piperidine-2-carboxamide]
–	–	+++ (>500 +++)	> 7.00	COc1ccc(CC[C@@H](OC(=O)[C@@H]2CCCCN2C(=O)[C@H](c2cc(OC)c(OC)c(OC)c2)[C@@H]2C=CCCC2)c2cccc(OCC(=O)O)c2)cc1OC [Compound A11, 2-(3-((R)-1-(((S)-1-((S)-2-((S)-Cyclohex-2-en-1-yl)-2-(3,4,5-trimethoxyphenyl)acetyl)piperidine-2-carbonyl)oxy)-3-(3,4-dimethoxyphenyl)propyl)phenoxy) acetic acid]
–	–	+++ (>500 +++)	> 7.00	COc1cc([C@@H](C(=O)N2CCCC[C@H]2C(=O)OC(CCCc2cccnc2)CCCc2cccnc2)[C@@H]2C=CCCC2)cc(OC)c1OC [Compound A13, (S)-1,7-Di(pyridin-3-yl)heptan-4-yl-1-((S)-2-((S)-cyclohex-2-en-1-yl)-2-(3,4,5-trimethoxyphenyl)acetyl)piperidine-2-carboxylate]
–	–	++ (>50 ++)	6.00 to 7.00	COc1ccc(CCC(NC(=O)[C@@H]2CCCCN2C(=O)[C@H](c2cc(OC)c(OC)c(OC)c2)[C@@H]2C=CCCC2)c2cccc(OCC(=O)O)c2)cc1OC (stereo partly drawn) [Compound A16, 2-(3-((R)-1-((S)-1-((S)-2-((R)-Cyclohex-2-en-1-yl)-2-(3,4,5-trimethoxyphenyl)acetyl)piper-idine-2-carboxamido)-3-(3,4-dimethoxyphenyl)propyl)phenoxy) acetic acid]
–	–	+++ (>500 +++)	> 7.00	COc1cc([C@@H](C(=O)N2CCCC[C@H]2C(=O)OC(CCCc2cccnc2)CCCc2cccnc2)C2CCCCC2)cc(OC)c1OC [Compound A19, (2S)-1,7-di(pyridin-3-yl)heptan-4-yl 1-(2-cyclohexyl-2-(3,4,5-trimethoxyphenyl)acetyl)piperidine-2-carboxylate]
–	–	++ (>50 ++)	6.00 to 7.00	COc1ccc(OCCOC(=O)[C@@H]2CCCCN2C(=O)[C@H](c2cc(OC)c(OC)c(OC)c2)C2CCCCC2)cc1OC [Compound A20, (S)-2-(3,4-dimethoxyphenoxy)ethyl-1-((S)-2-cyclohexyl-2-(3,4,5-trimethoxyphenyl)acetyl)piperidine-2-carboxylate]
–	–	++ (>50 ++)	6.00 to 7.00	COc1ccc(CC[C@@H](NC(=O)[C@@H]2CCCCN2C(=O)[C@H](c2cc(OC)c(OC)c(OC)c2)C2CCCCC2)c2cccc(OCC(=O)O)c2)cc1OC [Compound A22, 2-(3-((R)-1-((S)-1-((S)-2-cyclohexyl-2-(3,4,5-trimethoxyphenyl)acetyl)piperidine-2-carboxamido)-3-(3,4-dimethoxyphenyl)propyl)phenoxy)acetic acid]
